Data: PMC7529893, “Structural basis for substrate recognition and chemical inhibition of oncogenic MAGE ubiquitin ligases” (Nature Communications, 2020)

Biological target: T1, MAGE-A11:PCF11 interaction (GST-MAGE-A11 and FAM-PCF11_4) (Homo sapiens, UniProt P43364)
T1 construct: GST-MAGE-A11 MHD (human MAGE-A11 MHD amino acid 218-429); made in house; host or cells: E. coli BL21(DE3)
T1 sequence (P43364 218-429): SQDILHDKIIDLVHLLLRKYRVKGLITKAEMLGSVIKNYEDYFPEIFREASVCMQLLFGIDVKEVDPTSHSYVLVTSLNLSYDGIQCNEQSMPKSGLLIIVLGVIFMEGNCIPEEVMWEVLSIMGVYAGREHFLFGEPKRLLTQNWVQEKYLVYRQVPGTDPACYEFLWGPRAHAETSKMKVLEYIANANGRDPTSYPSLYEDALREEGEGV
Experiment: TR-FRET primary / single point screen at 15 µM
Type: binding
Protocol: The TR-FRET assay buffer with a formula of 50 mM Tris pH 7.5, 20 mM MgCl2, 0.1 mg/ml BSA and 1 mM DTT was freshly prepared before each experiment. All TR-FRET assays were performed in black 384-well plates with 20 µl/well assay volume in the TR-FRET assay buffer at room temperature (~25 °C). All peptides or compounds were solubilized in DMSO. To test the competitive activity of peptides or compounds against the interaction between GST-MAGE-A11 MHD and FAM-PCF11_4 peptide, 10 µl/well peptide or compound at specified concentration was dispensed into a black 384-well low volume plate, followed by 5 µl/well FAM-PCF11_4 (800 nM), 5 µl/well Tb-anti-GST (20 nM), and GST-MAGE-A11 MHD (20 nM). The assay components in each well was then mixed by shaking the plate on an IKA MTS 2/4 digital microtiter plate shaker (IKA Works; Wilmington, NC, USA) for 1 min. The plate was further centrifuged in an Eppendorf 5810 centrifuge with an A-4-62 swing-bucket rotor (Eppendorf AG, Hamburg, Germany) at 201 g for 30 s. The plate was then incubated for 90 min with a lid to avoid light exposure to the assay components. After incubation, the fluorescent emission signals at 520 nm and 490 nm channels of individual wells were measured with a PHERAstar FS plate reader (BMG Labtech; Durham, NC, USA) by using a 340 nm excitation filter, 100 µs delay time, and 200 µs integration time. The TR-FRET fluorescence emission ratio (TR-FRET signal) for each well was presented as 10,000 × 520 nm/490 nm, which was used directly for curve fitting, or further converted to %Inhibition based on the respective positive and negative controls. The graphic software GraphPad Prism 4.81 (GraphPad Software; La Jolla, CA, USA) was used to generate curves and derive IC50 values of tested peptides or compounds, if applicable. TR-FRET screen for identifying MAGE-A11 small molecule inhibitors was performed as follows. The primary one-concentration screening and subsequent 10 or 20-concentration dose-response tests were accomplished with an automated High Throughput Screening system (HighRes Biosolutions, Beverly, MA)[30]. In the primary screening, 15 µl/well FAM-PCF11_4 (267 nM) was first dispensed with a Multidrop Combi Reagent Dispenser (Thermo Fisher Scientific, Waltham, MA) to black 384-well low-volume assay plates. The plates were spun down with a Velocity11 VSpin microplate centrifuge (Agilent Technologies, Santa Clara, CA). In total, 30 nl/well of 10 mM compound/DMSO solutions, or DMSO alone, were transferred from compound plates (the St. Jude FDA drug and bioactive library, Drug-like library and Lead-like library) or a control plate to the assay plates with a Pin Tool (V&P Scientific, San Diego, CA). The compounds were arrayed in columns 3–12 and columns 15–24 of compound plates. The controls were arrayed in columns 1, 2, 13, and 14 of a compound plate. In all, 5 µl/well Tb-anti-GST (20 nM) and GST-MAGE-A11 (20 nM) or 5 µl/well Tb-anti-GST (20 nM) alone was then dispensed to selected wells with a Multidrop Combi Reagent Dispenser. The final assay volume was 20 µl/well. […] The final tested compound concentration was 15 µM. The final FAM-PCF11_4 concentration was 200 nM and the final Tb-anti-GST concentration was 5 nM. The final GST-MAGE-A11 concentration was 5 nM except for those selected positive control wells in which GST-MAGE-A11 was not presented. The plates were then shaken with a big bear shaker (Big Bear Automation, Santa Clara, California) and spun down with the Velocity11 VSpin microplate centrifuge for 20 s. The plates were then incubated at room temperature in a Liconic incubator (Liconic US, Woburn, MA) for 90 min. The TR-FRET signals for individual wells were measured with a PHERAstar FS plate reader. The %Inhibition of each tested inhibitor was calculated by using Eq. 1. Those inhibitors with %Inhibition >30% in the primary screening were selected for further dose-response test, along with additional newly synthesized compounds. […]

[1] = single point TR-FRET screening of 797 quinoline compounds against MAGE-A11:PCF11
[2] = single point TR-FRET screening of quinoline compounds against MAGE-A11:PCF11, 15 µM

Row | SMILES | percent inhibition (TR-FRET) [1] | percent inhibition (TR-FRET) [2]
1 | O=S(=O)(c1ccccc1)c1cnc2ccc(F)cc2c1N1CCN(c2ccccc2F)CC1 [SJ000315166] | -99.0552 | –
2 | COc1cccc(F)c1CN(CCCCNc1ccnc2cc(Cl)ccc12)Cc1ccccc1 [SJ000357501] | 5.094 | –
3 | COc1ccc(O)c(CN(CCCNc2ccnc3cc(Cl)ccc23)Cc2ccccc2)c1 [SJ000357463] | – | 14.1686
4 | COc1ccc2nc3cc(Cl)ccc3c(NCCCNCc3ccccc3C(F)(F)F)c2c1 [SJ000361095] | -169.468 | –
5 | O=[N+]([O-])c1ccc(CN(CCCCNc2ccnc3cc(Cl)ccc23)Cc2ccccc2)cc1 [SJ000361202] | 15.2459 | –
6 | CCOc1ccc2ncc(S(=O)(=O)c3ccc(C)cc3)c(N3CCN(c4ccc(F)cc4)CC3)c2c1 [SJ000117060] | -11.0715 | –
7 | Clc1ccc2c(NCCCN(Cc3ccccc3)Cc3cccc4ccccc34)ccnc2c1 [SJ000361181] | – | 26.2256
8 | NC(=O)CC(Nc1c2ccccc2nc2ccccc12)C(=O)O (stereo not shown) [SJ000044383] | – | 20.1038
9 | CCCCCCNCCCNc1c2ccc(Cl)cc2nc2ccc(OC)cc12 [SJ000361097] | -281.691 | –
10 | CCCN(CCCNc1ccnc2cc(C(F)(F)F)ccc12)CC1CC1 [SJ000361266] | – | 48.1534
11 | Clc1ccc2c(N3CCN(CCCN4CCN(c5ccnc6cc(Cl)ccc56)CC4)CC3)ccnc2c1 [SJ000518980] | -2.9894 | –
12 | COc1cccc(CN(CCCNc2ccnc3cc(Cl)ccc23)Cc2ccccc2)c1O [SJ000357465] | – | 13.1749
13 | CCCN(CCCCNc1ccnc2cc(Cl)ccc12)Cc1ccoc1 [SJ000311200] | 12.3053 | –
14 | COc1ccc(N2CCN(c3c(S(=O)(=O)c4ccc(Cl)cc4)cnc4ccc(C)cc34)CC2)cc1 [SJ000117075] | -3.122 | –
15 | Oc1c(F)cc(F)cc1CN(CCCNc1ccnc2cc(Cl)ccc12)Cc1ccccc1 [SJ000357504] | – | 27.6387
16 | CCOC(=O)c1cnc2ccc(Br)cc2c1NCCN1CCOCC1 [SJ000031339] | -47.2425 | –

Row | SMILES | percent inhibition (TR-FRET) [1] | percent inhibition (TR-FRET) [2]
17 | Fc1cccc(CN(CCCNc2ccnc3cc(Cl)ccc23)Cc2ccccc2)c1 [SJ000361176] | – | 20.3571
18 | Cc1ccc2ncc(S(=O)(=O)c3ccccc3)c(N3CCN(c4ccccc4)CC3)c2c1 [SJ000083973] | -29.7042 | –
19 | Clc1ccc2c(NC3CCN(Cc4ccc(Br)o4)CC3)ccnc2c1 [SJ000357512] | -4.381 | –
20 | COc1ccc2nc3cc(Cl)ccc3c(NCCCNCc3ccc4[nH]ccc4c3)c2c1 [SJ000520914] | -184.229 | –
21 | CCOC(=O)c1cnc2ccc(Br)cc2c1NCCCN1CCOCC1 [SJ000176507] | – | -22.0025
22 | FC(F)(F)Oc1ccccc1CN(CCCCNc1ccnc2cc(Cl)ccc12)Cc1ccccc1 [SJ000520459] | 30.8594 | –
23 | Cc1ccc(C)c(N2CCN(c3c(S(=O)(=O)c4ccccc4)cnc4ccc(F)cc34)CC2)c1 [SJ000117083] | -15.3776 | –
24 | Cc1cccc(N2CCN(c3c(S(=O)(=O)c4ccccc4)cnc4ccccc34)CC2)c1C [SJ000117081] | -13.1252 | –
25 | CCOC(=O)c1cnc2c(Cl)cccc2c1NCCN1CCOCC1 [SJ000163436] | -6.529 | –
26 | CCN1CCN(c2c(S(=O)(=O)c3ccc(OC)cc3)cnc3cc(OC)c(OC)cc23)CC1 [SJ000083972] | 7.411 | –
27 | Clc1ccc2c(NCCCNCC3CCCCC3)ccnc2c1 [SJ000361102] | – | 15.626
28 | CCCCCCN(CCCNc1ccnc2cc(Cl)ccc12)Cc1ccccc1 [SJ000361189] | – | -40.7502
29 | CCCN(CCCNc1ccnc2cc(C(F)(F)F)ccc12)Cc1cn(C)c2ccccc12 [SJ000520469] | – | 25.5382
30 | Clc1ccc(CN(CCCCNc2ccnc3cc(Cl)ccc23)Cc2ccccc2)c(Cl)c1 [SJ000361207] | 35.4339 | –
31 | Cc1ccc(S(=O)(=O)c2cnc3ccccc3c2N2CCN(c3ccc(F)cc3)CC2)cc1 [SJ000117057] | -20.6111 | –
32 | CCCN(CCCNc1c2ccc(Cl)cc2nc2ccc(OC)cc12)Cc1sccc1C [SJ000520921] | – | -83.8109

Other lines, results leading:

Row | percent inhibition (TR-FRET) [1] | percent inhibition (TR-FRET) [2] | SMILES
33 | – | 27.3587 | CC(C)(C)CCNCCCNc1ccnc2cc(C(F)(F)F)ccc12 [SJ000521053]
34 | – | -10.0604 | CCCN(CCCNc1c2ccc(Cl)cc2nc2ccc(OC)cc12)Cc1ccc(N(C)C)cc1 [SJ000520955]
35 | – | 18.9568 | Cn1cccc1CNCCCNc1ccnc2cc(Cl)ccc12 [SJ000521019]
36 | – | 4.744 | Clc1ccc2c(NCCCNCc3ccccn3)ccnc2c1 [SJ000523050]
37 | -177.507 | – | CCCN(CCCNc1c2ccc(Cl)cc2nc2ccc(OC)cc12)Cc1ccc(OC)c(F)c1 [SJ000522963]
38 | – | 7.779 | FC(F)(F)c1ccc2c(NCCCNCc3nccs3)ccnc2c1 [SJ000521046]
39 | 25.1182 | – | O=C(C[C@H]1CC[C@]2(CC1)OO[C@]1(O2)C2CC3CC(C2)CC1C3)NCCCCNc1ccnc2cc(Cl)ccc12 [SJ000578384]
40 | -107.991 | – | CCCN(CCCNc1c2ccc(Cl)cc2nc2ccc(OC)cc12)Cc1cccc2c1OCO2 [SJ000522979]
41 | – | 15.2459 | Clc1ccc2c(NCCCNCc3ccsc3)ccnc2c1 [SJ000523052]
42 | – | -1.532 | COc1ccc2nc3cc(Cl)ccc3c(NCCCNCc3ccc(N(C)C)c4ccccc34)c2c1 [SJ000523028]
43 | – | 4.43 | COc1ccccc1CN(CCCNc1ccnc2cc(Cl)ccc12)Cc1ccccc1 [SJ000522722]
44 | – | 4.828 | CCCN(CCCNc1ccnc2cc(Cl)ccc12)Cc1c[nH]c(C)n1 [SJ000522990]
45 | -109.452 | – | COc1ccc2nc3cc(Cl)ccc3c(NCCCNCc3ccc4ccccc4c3)c2c1 [SJ000523038]
46 | – | 7.014 | Clc1ccc2c(NCCCNCc3cncc(Br)c3)ccnc2c1 [SJ000521037]
47 | -127.586 | – | COc1ccc2nc3cc(Cl)ccc3c(NCCCNCc3ccncc3)c2c1 [SJ000523023]
48 | – | -51.6891 | CCCN(CCCNc1c2ccc(Cl)cc2nc2ccc(OC)cc12)Cc1csc2ccccc12 [SJ000522970]
49 | 0.05797 | – | COc1ccc(CN(CCCCNc2ccnc3cc(Cl)ccc23)Cc2ccccc2)cc1OC [SJ000522728]
50 | – | 20.7933 | CCCN(CCCNc1ccnc2cc(Cl)ccc12)Cc1ccc(F)cc1 [SJ000522759]
51 | -124.818 | – | CCCN(CCCNc1c2ccc(Cl)cc2nc2ccc(OC)cc12)Cc1ccc(C)s1 [SJ000520927]
52 | -302.626 | – | CCCN(CCCNc1c2ccc(Cl)cc2nc2ccc(OC)cc12)Cc1cccn1C [SJ000522987]
